Entries after “also recorded” stand apart in the source; their conditions may differ.
Legend:
Type in all cases: physicochemical
[1] = Near-UV CD thermal melts monitoring mean residue ellipticity at 280 nm; settings: 10 mM PBS buffer pH 7.5, elevated temperatures
Method: FIGS. 6A-6B. Near-UV CD thermal melts for the TrpPlexus cation-π interation network mutants. (6A) Schematic of the cation-π network of TrpPlexus detailing variable amino acid positions 1, 3, and 5 in the mutant sequences. (6B) Near-UV CD thermal melts for TrpPlexus (“RRR”) and each mutant monitoring mean residue ellipticity at 280 nm (50 μM protein, 1 cm path length, 10 mM PBS buffer pH 7.5). Inset compares side-chain functionalities of the arginine (R), lysine (K), and L-citrulline (Cit) residues.
CD spectra were collected using an Aviv (Lakewood, N.J.) stopped flow CD Spectropolarimeter Model 202SF. […] Concentrations of protein stock solutions for conversion of millidegrees to mean residue ellipticity (MRE) were determined by UV absorbance at 280 nm using the standard extinction coefficients for the tryptophan (5690 M-1 cm-1), tyrosine (1280M-1 cm-1), and disulfide-bridged cysteine (125M-1 cm-1) chromophores in 6 M GnCl. […]
To explore the influence of cationic groups on fold stability, mutants were designed that replaced particular guanidinyl (arginine) side chain groups with either amino (lysine) cations or charge-neutral urea (L-citrulline) groups (FIG. 6). The near-UV CD signal monitored at 280 nm provides a metric of relative tertiary structure content (FIG. 6B). […]

[2] = Guanidinium chloride (GnCl) titration monitored by near-UV CD at 280 nm; settings: standard aqueous conditions at 25° C.; extrapolated from variable GnCl concentration near-UV CD data (280 nm), 50 μM protein
Method: CD spectra were collected using an Aviv (Lakewood, N.J.) stopped flow CD Spectropolarimeter Model 202SF. The far-UV (190-260 nm) CD spectra were obtained using a 1 mm path length cell and in 10 mM PBS buffer at a pH of 7.5 at 100 μM protein concentrations. The near-UV (245-320 nm) CD spectra were obtained using a 1 cm path length cell and in 10 mM PBS buffer at a pH of 7.5 at 50 μM concentrations. The consensus CD spectra were established as the Gaussian weighted average of 40 scans with evaluation of ellipticity every 0.5 nm, each having an averaging time of 0.5 s. […] Concentrations of protein stock solutions for conversion of millidegrees to mean residue ellipticity (MRE) were determined by UV absorbance at 280 nm using the standard extinction coefficients for the tryptophan (5690 M-1 cm-1), tyrosine (1280M-1 cm-1), and disulfide-bridged cysteine (125M-1 cm-1) chromophores in 6 M GnCl. […]
Secondary and tertiary structure content of the mini-protein was initially evaluated using circular dichroism (CD) spectroscopy (FIG. 4A,B). In the near-UV (260-320 nm) CD spectrum, ellipticity can arise from indole and phenol absorbance bands when tryptophan or tyrosine side chains are present in an asymmetric environment. […]

[3] = Sedimentation equilibrium analysis; settings: concentration of 1.8 mM at 4° C.
Method: Sedimentation equilibrium measurements were carried out on a Beckman (Brea, Calif.) XL-A analytical ultracentrifuge equipped with absorption optics and an An-60 Ti rotor. Analysis was conducted at rotor speeds of 45,000 and 48,000 rpm at 4° C. Data were acquired at two wavelengths per rotor speed setting and processed globally for the best fit to a single-species model of absorbance versus radial distance. Solvent density and protein partial specific volume were calculated according to solvent and protein composition, respectively.
The native sequence on which to initiate the mini-protein design was chosen based on two primary criteria. First, the present inventors sought a sequence containing a loop featuring a β-hairpin, which could be nucleated using a D-Pro-Gly motif (2, 7). Most of the loop regions observed in WSXWS motifs are lacking in canonical forms of secondary structure that could be enforced with rational peptide design (FIG. 2). Second, the present inventors wanted a sequence containing three arginine residues on the β-strand portion of the fold composing the cation-π interaction network. The only sequence meeting these two criteria was that of the WSXWS motif found in IL3RB (UniprotID: P32927). […] The apparent molecular mass was within 10% of that calculated for an ideal monomer, with no systematic deviation of the residuals. […]

ΔG° for folding [2]: approximately −6.7 kcal/mol
oligomeric state by sedimentation equilibrium [3]: monomeric
Substance: RVRVRTSRpGYNGTWSEWS [TrpPlexus]
near-UV CD signal as a function of temperature (thermostability) [1]: slightly increase in strength at elevated temperatures, indicating thermostability; also recorded: weakly sigmoidal transitions to stronger ellipticities at elevated temperatures

Reference: patent US10703777B2, “Miniature protein scaffolds and methods for use thereof” (New York University, priority 2017, dated 2020)
